In US6436943B1 (dated 2002):

Row | SMILES | melting point [°C]
1 | COC(=O)C1=C(C)NC(c2ccccn2)=NC1c1ccccc1[N+](=O)[O-] (stereo not shown) | 167 to 168
2 | CCOC(=O)C1=C(C)NC(c2ccccn2)=NC1c1ccccc1 (stereo not shown) | 101 to 103
3 | COC(=O)C1=C(C)NC(c2ccccn2)=NC1c1ccccc1C (stereo not shown) | 100 to 101
4 | COC(=O)C1=C(C)NC(c2ccccn2)=NC1C1CCCCC1.Cl (stereo not shown) | 149 to 150
5 | CCCCOC(=O)C1=C(C)NC(c2ccccn2)=NC1c1ccccc1Cl (stereo not shown) | 176 to 178
6 | COC(=O)C1=C(C)NC(c2ccccn2)=NC1c1ccccc1F (stereo not shown) | 217 to 218
7 | COOCC1=C(C)NC(c2ccccn2)=NC1c1cccc([N+](=O)[O-])c1 (stereo not shown) | 179 to 180
8 | COC(=O)C1=C(C)NC(c2ccccn2)=NC1c1ccc(-n2ccnn2)cc1 (stereo not shown) | 149 to 150
9 | COC(=O)C1=C(C)NC(c2ccccn2)=NC1c1ccc(F)cc1[N+](=O)[O-] (stereo not shown) | 175 to 176
10 | COC(=O)C1=C(C)NC(c2ccccn2)=NC1c1ccsc1 (stereo not shown) | 108 to 109
11 | COC(=O)C1=C(C)NC(c2ccccn2)=NC1c1cccc(Cl)c1Cl (stereo not shown) | 125 to 127
12 | COOCC1=C(C)NC(c2ccccn2)=NC1c1ccco1 (stereo not shown) | 122 to 124
13 | CCOC(=O)C1=C(C)NC(c2ccncc2)=NC1c1ccccc1Cl (stereo not shown) | 101 to 103
14 | COC(=O)C1=C(C)NC(c2ccccn2)=NC1c1cc([N+](=O)[O-])ccc1Cl (stereo not shown) | 151 to 153
15 | COC(=O)C1=C(C)NC(c2ccccn2)=NC1c1cccc2ncc(-c3ccccc3)cc12 (stereo not shown) | 176 to 177
16 | CC1=C(C(=O)OCCC#N)C(c2ccccc2Cl)N=C(c2ccccn2)N1 (stereo not shown) | 138 to 139
17 | COC(=O)C1=C(C)NC(c2ccccn2)=NC1c1ccccc1OC (stereo not shown) | 103 to 104
18 | CC1=C(C(=O)OC(C)C)C(c2ccccc2Cl)N=C(c2ccccn2)N1 (stereo not shown) | 93 to 95
19 | CCCOOCC1=C(C)NC(c2ccccn2)=NC1c1ccccc1Cl (stereo not shown) | 105 to 110
20 | COC(=O)C1=C(C)NC(c2ccccn2)=NC1c1ccc(C#N)cc1 (stereo not shown) | 141 to 143
21 | COC(=O)C1=C(C)NC(c2ccccn2)=NC1c1cccc2sc(-c3ccccc3)nc12 (stereo not shown) | 172 to 173
22 | COC(=O)C1=C(C)NC(c2cccnc2)=NC1c1ccccc1Cl (stereo not shown) | 131 to 133
23 | COOCC1=C(C)NC(c2ccccn2)=NC1c1cccc(Cl)c1 (stereo not shown) | 122 to 123
24 | COC(=O)C1=C(C)NC(c2ccccn2)=NC1c1ccc(Cl)cc1 (stereo not shown) | 201 to 202
25 | COOCC1=C(C)NC(c2ccccn2)=NC1c1ccccc1O (stereo not shown) | 131 to 132
